Data: article PMC8414367, “(E)-7-Ethylidene-lithocholic Acid (7-ELCA) Is a Potent Dual Farnesoid X Receptor (FXR) Antagonist and GPBAR1 Agonist Inhibiting FXR-Induced Gene Expression in Hepatocytes and Stimulating Glucagon-like Peptide-1 Secretion From Enteroendocrine Cells” (Frontiers in Pharmacology, 2021)
Where two headings read alike, the source gives them in different places.

How the values were obtained:
[1] = test system: FXR; design: method as in Sun et al., 2018; conditions: ref Sun et al., 2018; read-out: IC50, FXR antagonist; cited from earlier work
[2] = test system: various cell lines; assay: MTS viability assay, summary over cell lines; assay type: cell-based; conditions: 24 h, read-out: IC50, cellular viability
Procedure: (§1) The potential cytotoxicity of 7-alkylated chenodeoxycholic acid derivatives were assessed in different human (HepG2, HepaRG and Huh7) and murine (AML12) hepatocyte-derived cell lines. For this purpose, hepatic cells were treated at increasing concentration for 24h and analyzed by MTS viability assay.
(§2) Table S2. Cell viability was determined using the Cell Titer 96 Aqueous One Solution Cell Proliferation Assay (MTS assay) after treatment with test compounds for 24 h in four different hepatic cell lines. Vehicle (0.1% DMSO) and background (10% SDS; v/v, toxic control) controls of cell viability were set to be 100% and 0%, respectively.

[3] = target: T1, GPBAR1 (Homo sapiens, UniProt Q8TDU6); assay: GPBAR1 CRE-luc luciferase reporter assay in HepG2 cells; assay type: cell-based; conditions: 10 µM, 5 h, LCA 10 µM set as 100%
T1 construct: host or cells: HepG2
T1 sequence (Q8TDU6 1-330): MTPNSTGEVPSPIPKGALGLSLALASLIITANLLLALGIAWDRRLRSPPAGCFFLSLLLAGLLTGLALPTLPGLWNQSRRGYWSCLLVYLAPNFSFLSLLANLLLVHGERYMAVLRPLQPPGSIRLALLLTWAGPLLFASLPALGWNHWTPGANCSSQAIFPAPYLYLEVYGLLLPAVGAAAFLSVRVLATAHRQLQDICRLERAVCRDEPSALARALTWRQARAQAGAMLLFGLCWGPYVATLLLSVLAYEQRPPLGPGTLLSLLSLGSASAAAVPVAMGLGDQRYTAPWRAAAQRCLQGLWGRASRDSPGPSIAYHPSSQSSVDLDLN
Procedure: (C) Effects of LCA and 7-ELCA (both at 10 µM) on intracellular generation of cAMP in differentiated NCI-H716 cells after 30 min treatment. The increase in cAMP level (ΔcAMP) is presented as the difference between cAMP concertation in the treated sample after subtraction of the cAMP in the nontreated control sample. (D) Concentration-response curves for activation of GPBAR1 by LCA and 7-ELCA. EC50 values were calculated using nonlinear fitting of concentration-response curves. […] GLP-1 was normalized to protein concentration and GPBAR1 mRNA expression to GAPDH mRNA. Data are presented as a fold to control nontreated (NT) samples. Forskolin (FSK, 10 µM) was used as a GPBAR1-independent activator of cAMP production.

[4] = MTS viability assay; assay type: cell-based, human; conditions: human, vehicle = 100%
Procedure: as §1, §2

[5] = test system: HepG2; assay: MTS viability assay; assay type: cell-based, human; conditions: Homo sapiens; HepG2, 24 h, MTS; read-out: IC50 (µM), cell viability
Procedure: as §1, §2

[6] = test system: HepaRG; assay: MTS viability assay; assay type: cell-based, human; conditions: Homo sapiens, 24 h, MTS, read-out: IC50 (µM), cell viability
Procedure: as §1, §2

[7] = test system: Huh7; assay: MTS viability assay; assay type: cell-based, human; conditions: Homo sapiens, Huh-7; Huh7, 24 h, MTS; read-out: IC50 (µM), cell viability
Procedure: as §1, §2

[8] = target: T2, human FXR (Homo sapiens, UniProt Q96RI1); assay: FXR luciferase reporter gene assay (FXRE-luc) in HepG2 cells, antagonistic mode; assay type: cell-based; conditions: for remaining activity at 10 µM / remaining activity at 40 µM: HepG2; for remaining activity at 10 µM: tested compound 10 µM
T2 sequence (Q96RI1 1-486): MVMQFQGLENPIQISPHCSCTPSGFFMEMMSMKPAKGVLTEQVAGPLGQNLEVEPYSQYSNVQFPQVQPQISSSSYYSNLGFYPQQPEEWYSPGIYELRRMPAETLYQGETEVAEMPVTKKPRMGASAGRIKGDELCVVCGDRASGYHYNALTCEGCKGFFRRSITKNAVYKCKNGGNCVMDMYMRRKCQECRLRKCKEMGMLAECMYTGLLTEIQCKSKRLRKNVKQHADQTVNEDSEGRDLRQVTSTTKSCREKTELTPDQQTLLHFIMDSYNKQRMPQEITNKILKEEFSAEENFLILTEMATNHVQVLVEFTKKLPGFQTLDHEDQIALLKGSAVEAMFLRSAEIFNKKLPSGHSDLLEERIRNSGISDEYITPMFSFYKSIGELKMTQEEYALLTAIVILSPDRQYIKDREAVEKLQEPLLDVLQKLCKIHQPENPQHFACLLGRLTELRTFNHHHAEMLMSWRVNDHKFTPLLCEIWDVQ
T2 sequence (P19793 1-462 partner): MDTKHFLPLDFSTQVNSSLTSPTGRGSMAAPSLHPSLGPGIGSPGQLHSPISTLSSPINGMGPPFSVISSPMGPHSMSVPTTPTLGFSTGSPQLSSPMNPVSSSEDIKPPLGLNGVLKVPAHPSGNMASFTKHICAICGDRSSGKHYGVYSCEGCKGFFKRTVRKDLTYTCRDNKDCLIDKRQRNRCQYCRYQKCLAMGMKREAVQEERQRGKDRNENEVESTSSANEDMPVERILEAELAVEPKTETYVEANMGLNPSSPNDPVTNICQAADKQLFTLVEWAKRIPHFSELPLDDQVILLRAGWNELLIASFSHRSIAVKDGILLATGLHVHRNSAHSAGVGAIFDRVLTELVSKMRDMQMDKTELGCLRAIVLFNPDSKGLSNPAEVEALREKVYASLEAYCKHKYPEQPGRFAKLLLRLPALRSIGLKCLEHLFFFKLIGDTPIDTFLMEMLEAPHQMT

[9] = test system: AML12; assay: MTS viability assay; assay type: cell-based, murine; conditions: Mus musculus; AML12, 24 h, MTS; read-out: IC50 (µM), cell viability
Procedure: as §1, §2

[10] = MTS viability assay; assay type: cell-based, murine; conditions: mouse, AML12 cells; AML12, 24 h, vehicle = 100%
Procedure: as §1, §2

[11] = target: T2, human FXR; assay: FXR luciferase reporter gene assay (FXRE-luc) in HepG2 cells, agonistic mode; assay type: cell-based; conditions: 10 µM, 24 h, compound alone
Procedure: FIGURE 3 Interaction of 7-alkylated derivatives of CDCA and 7-ELCA with human FXR in luciferase reporter gene assays. HepG2 cells were transiently co-transfected with the luciferase FXRE-luc construct and with expression pSG5-hFXR, pSG5-hRXRα, and pRL-TK vectors. Cells were treated with indicated concentrations for 24 h alone (A), an agonistic mode) or with 1 µM OCA as an FXR agonist (B–F), an antagonistic mode). […] IC50 values were calculated using concentration-response curves nonlinear fitting in GraphPad software.

[12] = test system: FXR; design: method as in Li et al., 2013; Sayin et al., 2013; conditions: co-activator assay, ref Li et al., 2013, Sayin et al., read-out: IC50, FXR antagonist; cited from earlier work
[13] = test system: NCI-H716 cells; assay: GLP-1 secretion (ELISA) in differentiated NCI-H716 cells; assay type: cell-based, human; conditions: 10 µM, 2 h
[14] = test system: GPBAR1 mRNA, NCI-H716 cells; assay: GPBAR1 mRNA expression in differentiated NCI-H716 cells; assay type: cell-based, human; conditions: 10 µM, 2 h
Procedure: FIGURE 8 Effects of 7-alkylated derivatives of CDCA and 7-ELCA on the membrane receptor GPBAR1. […]. (B) CRE-luc activation depends on the presence of GPBAR1. (C) Effects of LCA and 7-ELCA (both at 10 µM) on intracellular generation of cAMP in differentiated NCI-H716 cells after 30 min treatment. The increase in cAMP level (ΔcAMP) is presented as the difference between cAMP concertation in the treated sample after subtraction of the cAMP in the nontreated control sample. (D) Concentration-response curves for activation of GPBAR1 by LCA and 7-ELCA. EC50 values were calculated using nonlinear fitting of concentration-response curves. […] (G) 7-ELCA (10 µM) increases GLP-1 secretion in siRNA control but not in siRNA Gpbar1 transfected GLUTag cells after 1 h treatment. GLP-1 was normalized to protein concentration and GPBAR1 mRNA expression to GAPDH mRNA. Data are presented as a fold to control nontreated (NT) samples. Forskolin (FSK, 10 µM) was used as a GPBAR1-independent activator of cAMP production.

[15] = GW4064 1 µM, read-out: relative response (%) to the model FXR ligand activation (set to be 100%), GW4064 1 µM

## C[C@H](CCC(=O)NCCS(=O)(=O)O)[C@H]1CC[C@H]2[C@@H]3[C@@H](O)C[C@@H]4C[C@H](O)CC[C@]4(C)[C@H]3CC[C@]12C [TUDCA, tauro-ursodeoxycholic acid]
[1]
  IC50: 75.1 µM

## C[C@H](CCC(=O)NCC(=O)O)[C@H]1CC[C@H]2[C@@H]3[C@@H](O)C[C@@H]4C[C@H](O)CC[C@]4(C)[C@H]3CC[C@]12C [GUDCA]
[1]
  IC50: 77.2 µM

## CCCCCCCCC[C@@]1(O)C[C@@H]2C[C@H](O)CC[C@]2(C)C2CC[C@@]3(C)C(CC[C@@H]3[C@H](C)CCC(=O)O)C21 (stereo partly drawn) [2k, 3α,7α-Dihydroxy-7β-nonyl-5β-cholan-24-oic acid]
[2]
  IC50: ~15 µM
[3]
  CRE-luc activation compared to LCA (in words): weak or no ability to act as agonists of GPBAR1
[4]; HepG2 cells, HepG2, 24 h
  viability at 24 h, 10 µM: 79.8 ± 2.5%
[4]; HepaRG cells
  viability at 24 h, 10 µM: 71.6 ± 2.8%
[4]; Huh7 cells, Huh7, 24 h
  viability at 24 h, 10 µM: 118 ± 4.9%
[5]
  IC50: ~10.9 µM
[6]
  IC50: 18.9 µM
[7]
  IC50: 21.8 µM
[8]; [15]
  remaining activity at 10 µM: 84.8 ± 1.8%
[9]
  IC50: 12.5 µM
[10]
  viability at 24 h, 10 µM: 68 ± 1.4%
other
  melting point: 78 to 80 °C
[11]
  FXR activation, agonistic mode (in words): significant inhibition of the FXR basal activation

## C[C@H](CCC(=O)O)[C@H]1CCC2C3C(CC[C@@]21C)[C@@]1(C)CC[C@@H](O)C[C@H]1C[C@]3(O)C1CC1 (stereo partly drawn) [2i, 3α,7α-Dihydroxy-7β-cyclopropyl-5β-cholan-24-oic acid]
[3]
  CRE-luc activation compared to LCA (in words): comparable activities to LCA
[4]; HepG2 cells, HepG2, 24 h
  viability at 24 h, 10 µM: 90.9 ± 0.9%
[4]; HepaRG cells
  viability at 24 h, 10 µM: 133 ± 12.2%
[4]; Huh7 cells, Huh7, 24 h
  viability at 24 h, 10 µM: 97.9 ± 10.4%
[5]
  IC50: 178.4 ± 1 µM
[6]
  IC50: > 200 µM
[7]
  IC50: > 200 µM
[8]; [15]
  remaining activity at 10 µM: 88.4 ± 4.2%
[8]; tested compound 40 µM, CDCA 20 µM, * = significant effect on cellular viability, read-out: relative response (%) to the model FXR ligand activation (set to be 100%), CDCA 20 µM
  remaining activity at 40 µM: 60 ± 5.8%
[8]; tested compound 40 µM, GW4064 1 µM, * = significant effect on cellular viability, read-out: relative response (%) to the model FXR ligand activation (set to be 100%), GW4064 1 µM
  remaining activity at 40 µM: 60.5 ± 5.2%
[9]
  IC50: > 200 µM
[10]
  viability at 24 h, 10 µM: 108 ± 3.2%
other
  melting point: 78 to 82 °C
[11]
  FXR activation, agonistic mode (in words): significant inhibition of the FXR basal activation

## C[C@H](CCC(=O)NCCS(=O)(=O)O)[C@H]1CC[C@H]2[C@@H]3[C@H](O)[C@@H](O)[C@@H]4C[C@H](O)CC[C@]4(C)[C@H]3CC[C@]12C [tauro-α-MCA]
[12]
  IC50: 28 µM

## C[C@H](CCC(=O)O)[C@H]1CC[C@H]2[C@@H]3CC[C@@H]4C[C@H](O)CC[C@]4(C)[C@H]3CC[C@]12C [LCA, 3α-hydroxy-5β-cholan-24-oic acid, reference compound]
[13]
  GLP-1 secretion: stimulate GLP-1 secretion
[14]
  GPBAR1 mRNA expression: stimulate

## C[C@H](CCC(=O)NCCS(=O)(=O)O)[C@H]1CC[C@H]2[C@@H]3[C@@H](O)[C@@H](O)[C@@H]4C[C@H](O)CC[C@]4(C)[C@H]3CC[C@]12C [Tβ-MCA, tauro-β-muricholic acid, reference compound]
[12]
  IC50: 40 µM
[8]; at 100 µM, with 1 µM OCA
  inhibition of FXR activation: 15%
[8]; tested compound 40 µM, CDCA 20 µM, * = significant effect on cellular viability
  relative response (%) to the model FXR ligand activation (set to be 100%), CDCA 20 µM: 95.0±5.7%
[8]; tested compound 40 µM, GW4064 1 µM, * = significant effect on cellular viability
  relative response (%) to the model FXR ligand activation (set to be 100%), GW4064 1 µM: 84.8±6.2%
